Results: patent US20240072809A1, “ASGPR-BINDING COMPOUNDS FOR THE DEGRADATION OF EXTRACELLULAR PROTEINS” (Avilar Therapeutics, Inc., priority 2020, published 2024)

These molecules were tested against ASGPR (Homo sapiens (Human), UniProt P07306) (assay: Affinity to ASGPR measured by surface plasmon resonance (SPR)). Conditions: ASGPR ligands with linker, Table 5; read-out: ASGPR_SPR Binding KD.
Type: binding

Sequence of ASGPR (P07306 whole entry): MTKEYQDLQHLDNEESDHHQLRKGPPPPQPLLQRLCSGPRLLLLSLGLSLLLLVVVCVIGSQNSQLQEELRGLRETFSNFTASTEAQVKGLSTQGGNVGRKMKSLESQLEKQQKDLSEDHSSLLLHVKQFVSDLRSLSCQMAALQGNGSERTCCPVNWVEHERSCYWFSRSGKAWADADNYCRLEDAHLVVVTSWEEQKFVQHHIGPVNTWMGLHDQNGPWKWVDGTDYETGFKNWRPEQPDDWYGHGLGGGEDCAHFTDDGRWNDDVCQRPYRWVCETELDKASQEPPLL

Compound	Kd
CC(=O)N[C@@H]1CO[C@H](COCCOCCOCCOCCNC(=O)CCOCC(COCCC(=O)NCCOCCOCCOCCOC[C@H]2OC[C@@H](NC(C)=O)[C@@H](O)[C@H]2O)(COCCC(=O)NCCOCCOCCOCCOC[C@H]2OC[C@@H](NC(C)=O)[C@@H](O)[C@H]2O)NC(=O)COCCOCCOCCNc2ccc([N+](=O)[O-])cc2[N+](=O)[O-])[C@H](O)[C@@H]1O [Compound 33, 3,3′-((2-(2-(2-(2-(2-((2,4-dinitrophenyl)amino)ethoxy)ethoxy)ethoxy)acetamido)propane-1,3-diyl)tris(oxy))tris(N-(1-((2R,3R,4R,5R)-5-acetamido-3,4-dihydroxytetrahydro-2H-pyran-2-yl)-2,5,8,11-tetraoxatridecan-13-yl)propanamide)]	< 100 µM

Same assay, conditions: ASGPR ligands, Table 2; Biacore 8K, 25° C., steady state fit; read-out: SPR Binding External Calculation: KD

Kd	Compound
< 100 µM	CC(=O)N[C@@H]1CO[C@H](CO)[C@H](O)[C@@H]1O [Compound A127, N-((3R,4R,5R,6R)-4,5-dihydroxy-6-(hydroxymethyl)tetrahydro-2H-pyran-3-yl)acetamide]
< 100 µM	OC[C@H]1OC[C@H](Nc2ncc(Cl)cc2F)[C@@H](O)[C@H]1O [Compound A100]
> 1000 µM	OC[C@H]1OC[C@@H](CCc2ccccc2)[C@@H](O)[C@H]1O [Compound A160, (2R,3R,4R,5R)-2-(hydroxymethyl)-5-phenethyltetrahydro-2H-pyran-3,4-diol]
> 1000 µM	CC1C(Oc2ccccc2)O[C@H](CO)[C@H](O)[C@@H]1O (stereo in doubt) [Compound A192, (2R,3R,4R,5R,6S)-2-(hydroxymethyl)-5-methyl-6-phenoxytetrahydro-2H-pyran-3,4-diol]

Same assay, conditions: ASGPR ligands, Table 4; class symbols; read-out: ASGPR_PR Binding KD

Compound	Kd
OC[C@H]1OC[C@H](Nc2cc(Cl)c(Cl)cn2)[C@@H](O)[C@H]1O [Compound A298]	< 100 µM
N#Cc1cncc(N[C@H]2CO[C@H](CO)[C@H](O)[C@@H]2O)n1 [Compound A312]	< 100 µM
OC[C@H]1OC[C@H](Nc2nccc(C(F)F)n2)[C@@H](O)[C@H]1O [Compound A335]	< 100 µM
CS(=O)(=O)c1ccnc(N[C@H]2CO[C@H](CO)[C@H](O)[C@@H]2O)n1 [Compound A371, (2R,3R,4R,5S)-2-(hydroxymethyl)-5-((4-(methylsulfonyl)pyrimidin-2-yl)amino)tetrahydro-2H-pyran-3,4-diol]	< 100 µM
OC[C@H]1OC[C@H](Nc2nc(-c3cccnc3)ns2)[C@@H](O)[C@H]1O [Compound A358, (2R,3R,4R,5S)-2-(hydroxymethyl)-5-((3-(pyridin-3-yl)-1,2,4-thiadiazol-5-yl)amino)tetrahydro-2H-pyran-3,4-diol]	< 100 µM
N#Cc1ccnc(N[C@H]2CO[C@H](CO)[C@H](O)[C@@H]2O)n1 [Compound A309]	< 100 µM
OC[C@@]12CO[C@@H](O1)[C@H](Nc1ncns1)[C@@H](O)[C@H]2O [Compound A290]	< 100 µM
CO[C@H]1O[C@H](CO)[C@H](O)[C@H](O)[C@H]1Nc1cccc(C(F)(F)F)n1 [Compound A381]	< 100 µM
COc1ccnc(N[C@H]2CO[C@H](CO)[C@H](O)[C@@H]2O)n1 [Compound A323]	< 100 µM
COc1cc(N[C@H]2CO[C@H](CO)[C@H](O)[C@@H]2O)nc(OC)n1 [Compound A363, (2R,3R,4R,5S)-5-((2,6-dimethoxypyrimidin-4-yl)amino)-2-(hydroxymethyl) tetrahydro-2H-pyran-3,4-diol]	< 100 µM
COc1cc(N[C@H]2[C@H]3OC[C@](CO)(O3)[C@H](O)[C@@H]2O)nc(C#N)n1 [Compound A426]	< 100 µM
CO[C@@H]1O[C@H](CO)[C@H](O)[C@H](O)[C@@H]1N1CCOCC1 [Compound A218, (2R,3R,4R,5S,6R)-2-(hydroxymethyl)-6-methoxy-5-morpholinotetrahydro-2H-pyran-3,4-diol]	> 1000 µM
O=C(NC[C@@H]1CO[C@H](CO)[C@H](O)[C@@H]1O)C(F)(F)F [Compound A186, N-(((3R,4R,5R,6R)-4,5-dihydroxy-6-(hydroxymethyl)tetrahydro-2H-pyran-3-yl)methyl)-2,2,2-trifluoroacetamide]	> 1000 µM
NC[C@@H]1CO[C@H](CO)[C@H](O)[C@@H]1O [Compound A425, (2R,3R,4R,5R)-5-(aminomethyl)-2-(hydroxymethyl)tetrahydro-2H-pyran-3,4-diol]	> 1000 µM

The next lines start with the values.

Kd	Compound
100 to 500 µM	OC[C@H]1OC[C@@H](CNc2nc(Cl)ns2)[C@@H](O)[C@H]1O [Compound A188, (2R,3R,4R,5R)-5-(((3-chloro-1,2,4-thiadiazol-5-yl)amino)methyl)-2-(hydroxymethyl)tetrahydro-2H-pyran-3,4-diol]
< 100 µM	CO[C@H]1O[C@H](CO)[C@H](O)[C@H](O)[C@H]1Nc1ncns1 [Compound A378]
< 100 µM	CSc1nc(Cl)cc(N[C@H]2CO[C@H](CO)[C@H](O)[C@@H]2O)n1 [Compound A331, (2R,3R,4R,5S)-5-((6-chloro-2-(methylthio)pyrimidin-4-yl)amino)-2-(hydroxymethyl)tetrahydro-2H-pyran-3,4-diol]
100 to 500 µM	CN(C)[C@@H]1CO[C@H](CO)[C@H](O)[C@@H]1O [Compound A393, (2R,3R,4R,5R)-5-(dimethylamino)-2-(hydroxymethyl)tetrahydro-2H-pyran-3,4-diol]
< 100 µM	COc1nc(N[C@H]2CO[C@H](CO)[C@H](O)[C@@H]2O)nc(OC)n1 [Compound A325]
< 100 µM	CO[C@H]1O[C@H](CO)[C@H](O)[C@H](O)[C@H]1N [Compound A91, (2R,3R,4R,5R,6S)-5-amino-2-(hydroxymethyl)-6-methoxytetrahydro-2H-pyran-3,4-diol]

Same assay, conditions: ASGPR ligands, Table 4; numeric lower bounds; read-out: ASGPR_PR Binding KD

Compound	Kd
OC[C@H]1OC[C@@H](Nc2ncc(Cl)cc2F)[C@@H](O)[C@H]1O [Compound A388]	> 20 µM
CSc1cc(N[C@H]2CO[C@H](CO)[C@H](O)[C@@H]2O)nc(C(N)=O)n1 [Compound A352, 4-(((3S,4R,5R,6R)-4,5-dihydroxy-6-(hydroxymethyl)tetrahydro-2H-pyran-3-yl)amino)-6-(methylthio)pyrimidine-2-carboxamide]	> 20 µM
NC(=O)C[C@@H]1CO[C@H](CO)[C@H](O)[C@@H]1O [Compound A399, 2-((3R,4R,5R,6R)-4,5-dihydroxy-6-(hydroxymethyl)tetrahydro-2H-pyran-3-yl)acetamide]	> 200 µM
CS(=O)(=O)NC(=O)N[C@H]1CO[C@H](CO)[C@H](O)[C@@H]1O [Compound A157, N-(((3S,4R,5R,6R)-4,5-dihydroxy-6-(hydroxymethyl)tetrahydro-2H-pyran-3-yl)carbamoyl)methanesulfonamide]	> 20 µM
COc1cc(N[C@H]2CO[C@H](CO)[C@H](O)[C@@H]2O)nc(C#N)n1 [Compound A333]	> 10 µM

Now from value to molecule:

Kd	Compound
> 20 µM	OC[C@H]1OC[C@H](Nc2cnc(C(F)(F)F)cn2)[C@@H](O)[C@H]1O [Compound A314]
> 20 µM	N#Cc1cnc(N[C@H]2CO[C@H](CO)[C@H](O)[C@@H]2O)s1 [Compound A372, 2-(((3S,4R,5R,6R)-4,5-dihydroxy-6-(hydroxymethyl)tetrahydro-2H-pyran-3-yl)amino)thiazole-5-carbonitrile]
> 20 µM	N#Cc1cc(N[C@H]2CO[C@H](CO)[C@H](O)[C@@H]2O)nc(C#N)n1 [Compound A348, 6-(((3S,4R,5R,6R)-4,5-dihydroxy-6-(hydroxymethyl)tetrahydro-2H-pyran-3-yl)amino)pyrimidine-2,4-dicarbonitrile]
> 20 µM	OC[C@H]1OC[C@H](Nc2ccc(C(F)(F)F)nn2)[C@@H](O)[C@H]1O [Compound A313]
